Source: PubChem BioAssay AID1918941 (Molecular Pharmacology Branch, DTP, NCI, 2023)
Where “and” joins values, the source holds several entries; their conditions need not be identical. Equal entries are not always repeated.
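Also: spheroids exposed to agents for 7 days before luminescence read; 100% = DMSO vehicle control viability.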

Each molecule was assayed on SW 1271 complex spheroids, viability (assay: Anticancer human tumor SW 1271 cell line growth inhibition [LSD1]). Details: compound 0.01 µM; stronger effect = lower value.
Text: Multicellular complex tumor spheroid response to LSD1 Inhibitor Iadademstat in combination with a variety of drugs and investigational agents in selected tumor cell lines
The current study was undertaken to assess response to LSD1 inhibitors in combination with standard-of-care drugs and investigational agents in solid tumor complex spheroid models as well as in the K-562 leukemia. Complex spheroids include a stromal component modeled by human endothelial cells (HUVEC) and fibroblasts modeled by human mesenchymal stem cells (MSCs). The concentration ranges selected for each drug and investigational agent were based upon clinically achievable concentrations if the clinical Cmax of the agent was known.
Compounds. The drugs and investigational agents used in this study are listed on Table 1. All of the agents used, including staurosporine (NSC755774) and gemcitabine (NSC613327), were obtained from the Developmental Therapeutics Program, NCI. FDA-approved anticancer drugs are available from the NCI at http://dtp.nci.nih.gov/branches/dscb/oncology_drugset_explanation.html. Drugs and investigational agents were >95% pure by proton nuclear magnetic resonance (NMR) and liquid chromatography/mass spectrometry (LC/MS). Stock solutions were prepared at 400x in DMSO, stored at -70 degrees C, and diluted in fresh medium prior to their use. The final concentration of DMSO in cell culture wells never exceeded 0.25% (v/v). The FDA-approved anticancer drug set is available from the Developmental Therapeutics Program at https://dtp.cancer.gov/organization/dscb/obtaining/available_plates.htm. All drugs and investigational agents were tested over a range starting from a high concentration at or near the clinical Cmax and decreasing in half-log increments. If the clinical Cmax for an agent had not been determined, the highest concentration tested was 10 microM.
Cell Lines. The patient-derived cancer cell (PDC) lines: 292921-168-R-J2-PDC, K24384-001-R-PDC, and 521955-158-R2-J5-PDC pancreatic carcinomas, 556581-035-R-J1 ovarian carcinoma, 324938-238-R-J1-PDC, 855422-203-R-J1-PDC and 883617-216-R-J1-PDC urothelial bladder carcinomas, 743489-274-T-PDC renal cell carcinoma, 138582-R-J1 Merkel cell tumor, K60290-347-R-J1 and K57222-313-R-J1-PDC glioblastomas, 653999-131-R-J2-PDC, LG0703-F948-PDC, and 349418-098-R-PDC non-small cell lung carcinomas, 885512-296-R-J2-PDC, 171881-019-R-J1-PDC breast carcinomas and 186277-243-T-J2-PDC and 233499-124-R-J2-PDC colon carcinomas were obtained from the NCI Patient-Derived Models Repository (PDMR, https://pdmr.cancer.gov). The established cell lines NCI/ADR-RES (RRID:CVCL_14520 and OVCAR-5 (RRID:CVCL_1628) ovarian carcinomas, 786-O (RRID:CVCL_1051) and A498 (RRID:CVCL_A498) renal cell carcinoma, NCI-H211 (ATCC, cat. CRL-5824; RRID:CVCL_1529), NCI-H196 (ATCC, cat. CRL-5823, RRID:CVCL_1509), SW 1271 (ATCC, cat. CRL-2177, RRID:CVCL_1716) and NCI-H1876 (ATCC, cat. CRL-5902, RRID:CVCL_1503) small cell lung carcinomas, MDA-MB-231 (RRID:CVCL_0062) and MDA-MB-468 (RRID:CVCL_0419)breast carcinomas (10-12). Pooled donor human umbilical vein endothelial cells (HUVEC, Lonza, cat. CC-2519) and human mesenchymal stem cells (hMSC, Lonza, cat. PT-2501) were purchased from Lonza (Walkersville, MD).
Cell Culture. All cells were maintained in an incubator at 37 degrees C and 5% CO2 with 95% humidity. The PDC lines were cultured according to standard operating procedures established by the NCI PDMR (https://pdmr.cancer.gov). Briefly all PDCs were thawed and cultured in Matrigel-coated flasks prepared with a working solution of 1X Ham's F-12 nutrient mix, without supplementation (Invitrogen, Waltham, MA, cat. 11765054), 100 U/mL penicillin-streptomycin (Invitrogen, cat. 15140122), and 2.5% Matrigel (Corning Inc., Corning, NY, cat. 354248) for the first three passages. […]
In the case of `O=C(C=Cn1cnc(-c2cc(C(F)(F)F)cc(C(F)(F)F)c2)n1)NNc1cnccn1`, the viability, T/C is reported as 87.1% and 89.1%.

Same assay, conditions: compound 0.03 µM; stronger effect = lower value
With `CCN(c1cc(-c2ccc(CN3CCOCC3)cc2)cc(C(=O)NCc2c(C)cc(C)[nH]c2=O)c1C)C1CCOCC1` the viability, T/C was 116% and 109%.
For `CCc1c2c(nc3ccc(O)cc13)-c1cc3c(c(=O)n1C2)COC(=O)[C@]3(O)CC`, the viability, T/C was 7.65% and 6.53%.
For `COc1cc(C2c3cc4c(cc3C(OC3OC5COC(C)OC5C(O)C3O)C3COC(=O)C23)OCO4)cc(OC)c1O` (stereo not drawn), the viability, T/C was 79.2% and 82.9%.
`NS(=O)(=O)OCC1CC(n2ccc3c(NC4CCc5ccccc54)ncnc32)CC1O` (stereo not drawn) was tested, and the viability, T/C was 127% and 122%.
In the case of `Nc1ccccc1NC(=O)c1ccc(CNC(=O)OCc2cccnc2)cc1`, the viability, T/C is reported as 83.4% and 69.1%.
In the case of `Nc1ccn(C2OC(CO)C(O)C2(F)F)c(=O)n1` (stereo not drawn), the viability, T/C is reported as 66% and 66.1%.
In the case of `Nc1ncn(C2CC(O)C(CO)S2)c(=O)n1` (stereo not drawn), the viability, T/C is reported as 108% and 83.2%.
In the case of `O=C(C=Cc1cccc(S(=O)(=O)Nc2ccccc2)c1)NO`, the viability, T/C is reported as 74.9% and 70.5%.

Same assay, conditions: compound 0.0316 µM; stronger effect = lower value
For `CC(C)CC(NC(=O)C(Cc1ccccc1)NC(=O)c1cnccn1)B(O)O` (stereo not drawn), the viability, T/C was 0.16% and 0.18%.
In the case of `CC(C)CC(NC(=O)CNC(=O)c1cc(Cl)ccc1Cl)B1OC(=O)CC(CC(=O)O)(C(=O)O)O1` (stereo not drawn), the viability, T/C is reported as 0.32% and 0.39%.
For `CC(C)c1c(-c2ccccc2)nc2c(C#N)c[nH]n2c1=O`, the viability, T/C was 85.1% and 98.1%.
With `CC1(C)CCC(CN2CCN(c3ccc(C(=O)NS(=O)(=O)c4ccc(NCC5CCOCC5)c([N+](=O)[O-])c4)c(Oc4cnc5[nH]ccc5c4)c3)CC2)=C(c2ccc(Cl)cc2)C1` the viability, T/C was 93.1% and 103%.
In the case of `CC1COCCN1c1cc(-c2ccnn2C)c2ccnc(-c3ccn[nH]3)c2n1` (stereo not drawn), the viability, T/C is reported as 50.7% and 59%.
For `CC1COCCN1c1cc(C2(S(C)(=N)=O)CC2)nc(-c2ccnc3[nH]ccc23)n1` (stereo not drawn), the viability, T/C was 106% and 85.9%.
With `CC[C@@]1(O)C(=O)OCc2c1cc1n(c2=O)Cc2cc3c(CN(C)C)c(O)ccc3nc2-1` the viability, T/C was 58.7% and 65.7%.
With `COc1cc(Nc2ncc3c(n2)-c2ccc(Cl)cc2C(c2c(F)cccc2OC)=NC3)ccc1C(=O)O` the viability, T/C was 72.8% and 73.9%.
In the case of `COc1ccc([C@@H](O)c2cc(-c3ncnc4cc(N5CCOCC5)ccc34)c(F)cc2Cl)nn1`, the viability, T/C is reported as 79.9% and 85.5%.
With `Cn1ncnc1C1c2n[nH]c(=O)c3cc(F)cc(c23)NC1c1ccc(F)cc1` (stereo not drawn) the viability, T/C was 84.2% and 92.2%.
For `Nc1ncn(C2CC(O)C(CO)O2)c(=O)n1` (stereo not drawn), the viability, T/C was 83.1% and 88.3%.
With `O=C(C=Cn1cnc(-c2cc(C(F)(F)F)cc(C(F)(F)F)c2)n1)NNc1cnccn1` the viability, T/C was 80% and 75.1%.
In the case of `O=C(c1cc(Cc2n[nH]c(=O)c3ccccc23)ccc1F)N1CCN(C(=O)C2CC2)CC1`, the viability, T/C is reported as 84.9% and 80.2%.

Same assay, conditions: compound 0.0949 µM; stronger effect = lower value
With `CCN(c1cc(-c2ccc(CN3CCOCC3)cc2)cc(C(=O)NCc2c(C)cc(C)[nH]c2=O)c1C)C1CCOCC1` the viability, T/C was 90.8% and 91.2%.
In the case of `CCc1c2c(nc3ccc(O)cc13)-c1cc3c(c(=O)n1C2)COC(=O)[C@]3(O)CC`, the viability, T/C is reported as 6.15% and 5.62%.
In the case of `COc1cc(C2c3cc4c(cc3C(OC3OC5COC(C)OC5C(O)C3O)C3COC(=O)C23)OCO4)cc(OC)c1O` (stereo not drawn), the viability, T/C is reported as 72.4% and 64.1%.
`NS(=O)(=O)OCC1CC(n2ccc3c(NC4CCc5ccccc54)ncnc32)CC1O` (stereo not drawn) was tested, and the viability, T/C was 83.5% and 85.6%.
In the case of `Nc1ccccc1NC(=O)c1ccc(CNC(=O)OCc2cccnc2)cc1`, the viability, T/C is reported as 61.4% and 59.8%.
With `Nc1ccn(C2OC(CO)C(O)C2(F)F)c(=O)n1` (stereo not drawn) the viability, T/C was 67.3% and 68.9%.
With `Nc1ncn(C2CC(O)C(CO)S2)c(=O)n1` (stereo not drawn) the viability, T/C was 94.7% and 91.1%.
In the case of `O=C(C=Cc1cccc(S(=O)(=O)Nc2ccccc2)c1)NO`, the viability, T/C is reported as 57.1% and 58.1%.

Same assay, conditions: compound 0.1 µM; stronger effect = lower value
For `CC(C)CC(NC(=O)C(Cc1ccccc1)NC(=O)c1cnccn1)B(O)O` (stereo not drawn), the viability, T/C was 0.24% and 0.23%.
For `CC(C)CC(NC(=O)CNC(=O)c1cc(Cl)ccc1Cl)B1OC(=O)CC(CC(=O)O)(C(=O)O)O1` (stereo not drawn), the viability, T/C was 0.31% and 0.4%.
`CC(C)c1c(-c2ccccc2)nc2c(C#N)c[nH]n2c1=O` was tested, and the viability, T/C was 83.1% and 98.6%.
For `CC1(C)CCC(CN2CCN(c3ccc(C(=O)NS(=O)(=O)c4ccc(NCC5CCOCC5)c([N+](=O)[O-])c4)c(Oc4cnc5[nH]ccc5c4)c3)CC2)=C(c2ccc(Cl)cc2)C1`, the viability, T/C was 97.7% and 112%.
For `CC1COCCN1c1cc(-c2ccnn2C)c2ccnc(-c3ccn[nH]3)c2n1` (stereo not drawn), the viability, T/C was 50.3% and 47.2%.
With `CC1COCCN1c1cc(C2(S(C)(=N)=O)CC2)nc(-c2ccnc3[nH]ccc23)n1` (stereo not drawn) the viability, T/C was 97% and 88.6%.
For `CC[C@@]1(O)C(=O)OCc2c1cc1n(c2=O)Cc2cc3c(CN(C)C)c(O)ccc3nc2-1`, the viability, T/C was 49.4% and 53.2%.
With `COc1cc(Nc2ncc3c(n2)-c2ccc(Cl)cc2C(c2c(F)cccc2OC)=NC3)ccc1C(=O)O` the viability, T/C was 58.6% and 59%.
